The record followed here is ChEMBL document CHEMBL5465560, “Selectivity Literature for EUbOPEN Chemogenomic Library” (2024).

A value given as a limit tells only on which side of the number the result lay.

For experiment [1], the target named is Death-associated protein kinase 3 (Homo sapiens) (UniProt O43293). As to the kind of experiment: Selectivity interaction (Kinase panel (Z-LYTE Assay)) EUB0001632a DAPK3. The following applies: at 10 µM.
Experiment [2] deals with Interleukin-1 receptor-associated kinase 1 (Homo sapiens) (UniProt P51617). As to the kind of experiment: Selectivity interaction (Adapta Assay) EUB0001632a IRAK1. The note with it: at 10 µM.
Chain of Interleukin-1 receptor-associated kinase 1 (Homo sapiens) (P51617 whole entry, looked up): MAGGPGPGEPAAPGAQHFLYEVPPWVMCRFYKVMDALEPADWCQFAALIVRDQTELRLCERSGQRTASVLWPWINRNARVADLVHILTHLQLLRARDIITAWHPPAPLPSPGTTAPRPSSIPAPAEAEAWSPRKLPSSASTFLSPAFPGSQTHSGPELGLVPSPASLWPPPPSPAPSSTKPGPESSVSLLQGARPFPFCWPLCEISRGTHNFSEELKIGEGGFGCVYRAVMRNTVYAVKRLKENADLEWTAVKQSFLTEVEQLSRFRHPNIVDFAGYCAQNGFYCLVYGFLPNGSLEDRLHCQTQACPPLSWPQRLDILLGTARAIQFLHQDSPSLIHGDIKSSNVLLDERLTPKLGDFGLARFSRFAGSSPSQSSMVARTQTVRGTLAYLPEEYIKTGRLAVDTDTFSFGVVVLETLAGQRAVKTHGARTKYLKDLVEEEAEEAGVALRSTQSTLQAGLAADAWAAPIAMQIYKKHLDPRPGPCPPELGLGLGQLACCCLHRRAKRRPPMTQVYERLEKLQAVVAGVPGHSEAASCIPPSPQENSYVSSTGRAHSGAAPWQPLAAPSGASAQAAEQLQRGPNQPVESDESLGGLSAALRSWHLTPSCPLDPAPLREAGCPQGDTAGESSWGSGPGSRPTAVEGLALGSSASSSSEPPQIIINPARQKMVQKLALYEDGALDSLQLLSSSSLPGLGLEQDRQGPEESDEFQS
The target of experiment [3] is T1, Serine/threonine-protein kinase Nek1 (Homo sapiens) (UniProt Q96PY6).
T1 sequence (whole entry): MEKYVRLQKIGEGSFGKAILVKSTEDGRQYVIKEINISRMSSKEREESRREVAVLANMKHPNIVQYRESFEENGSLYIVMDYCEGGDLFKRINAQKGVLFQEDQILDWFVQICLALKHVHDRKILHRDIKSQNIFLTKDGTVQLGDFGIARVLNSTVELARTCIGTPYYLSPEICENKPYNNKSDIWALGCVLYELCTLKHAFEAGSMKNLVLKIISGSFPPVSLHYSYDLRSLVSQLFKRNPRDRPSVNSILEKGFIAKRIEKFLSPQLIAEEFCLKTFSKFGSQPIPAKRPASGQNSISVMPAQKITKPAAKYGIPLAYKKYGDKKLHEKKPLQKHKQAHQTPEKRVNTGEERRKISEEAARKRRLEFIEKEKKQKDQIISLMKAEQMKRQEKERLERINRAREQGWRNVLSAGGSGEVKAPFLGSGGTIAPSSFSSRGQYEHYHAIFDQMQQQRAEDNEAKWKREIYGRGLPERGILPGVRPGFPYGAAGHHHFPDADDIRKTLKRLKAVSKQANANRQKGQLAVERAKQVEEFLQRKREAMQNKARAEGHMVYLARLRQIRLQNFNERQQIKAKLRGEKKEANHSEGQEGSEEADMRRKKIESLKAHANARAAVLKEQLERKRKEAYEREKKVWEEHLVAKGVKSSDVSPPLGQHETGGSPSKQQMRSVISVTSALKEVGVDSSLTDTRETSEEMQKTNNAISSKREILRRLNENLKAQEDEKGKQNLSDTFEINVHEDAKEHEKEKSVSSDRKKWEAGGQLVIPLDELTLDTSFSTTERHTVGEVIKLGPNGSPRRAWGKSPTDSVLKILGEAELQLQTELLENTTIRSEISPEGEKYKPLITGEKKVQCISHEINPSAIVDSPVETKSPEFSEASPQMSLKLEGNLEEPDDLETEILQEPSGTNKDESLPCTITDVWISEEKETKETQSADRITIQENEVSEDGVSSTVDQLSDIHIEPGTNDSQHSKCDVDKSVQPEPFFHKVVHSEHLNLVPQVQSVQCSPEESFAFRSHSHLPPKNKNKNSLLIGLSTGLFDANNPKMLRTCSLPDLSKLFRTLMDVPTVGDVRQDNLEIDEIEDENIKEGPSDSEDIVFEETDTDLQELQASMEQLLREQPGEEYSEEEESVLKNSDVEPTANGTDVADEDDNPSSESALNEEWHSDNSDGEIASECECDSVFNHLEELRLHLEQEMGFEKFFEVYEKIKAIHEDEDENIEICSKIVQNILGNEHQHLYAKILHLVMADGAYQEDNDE
Briefly: Selectivity interaction (Ambit KINOMEscan and KiNATiv profiling in Jurkat cells) EUB0000090b NEK1. Type of experiment: cell-based. The note with it: at 1 µM.

In experiment [4] the target is Histone-lysine N-methyltransferase KMT5C (Homo sapiens) (UniProt Q86Y97). As to the kind of experiment: Selectivity interaction (Methyltransferase screen (radiometric assays, panel of 8 PRMTs, 21 protein lysine methyltransferases, 3 DNA methyltransferases, and one RNA methyltransferase)) EUB0000271b SUV420H2.
Chain of Histone-lysine N-methyltransferase KMT5C (Homo sapiens) (Q86Y97 whole entry, looked up): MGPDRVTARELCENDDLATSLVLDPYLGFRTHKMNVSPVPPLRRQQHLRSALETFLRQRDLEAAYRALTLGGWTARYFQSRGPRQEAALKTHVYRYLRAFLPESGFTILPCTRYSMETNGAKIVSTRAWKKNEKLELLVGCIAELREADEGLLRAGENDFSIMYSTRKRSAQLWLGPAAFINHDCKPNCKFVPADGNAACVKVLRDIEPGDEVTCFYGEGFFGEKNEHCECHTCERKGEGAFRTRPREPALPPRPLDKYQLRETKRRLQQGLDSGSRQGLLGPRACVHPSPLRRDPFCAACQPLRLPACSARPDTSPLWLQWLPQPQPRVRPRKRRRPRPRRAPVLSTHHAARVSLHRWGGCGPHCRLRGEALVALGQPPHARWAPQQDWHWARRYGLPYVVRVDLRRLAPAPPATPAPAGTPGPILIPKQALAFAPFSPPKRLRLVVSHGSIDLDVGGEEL
Experiment [5] has as its target Serine/threonine-protein kinase Nek4 (Homo sapiens) (UniProt P51957). As to the kind of experiment: Selectivity interaction (SelectScreen profiling (Invitrogen)) EUB0000607a NEK4. The note with it: at 2 µM.
The target in experiment [6] is SRSF protein kinase 3 (Homo sapiens) (UniProt Q9UPE1). Briefly: Selectivity interaction (SelectScreen profiling (Invitrogen)) EUB0000607a SRPK3. The note with it: at 2 µM.
In experiment [7] the test system is eIF-2-alpha kinase GCN2 (Homo sapiens), Q9P2K8 [S808G]. The note with it: at 10 µM.
Experiment [8] deals with Histone-lysine N-methyltransferase 2C (Homo sapiens) (UniProt Q8NEZ4). The note with it: at 10 µM.
Experiment [9] concerns the target Mitogen-activated protein kinase kinase kinase 20 (Homo sapiens) (UniProt Q9NYL2). As to the kind of experiment: Selectivity interaction (KinomeScan (DiscoverX)) EUB0000229b MAP3K20. The following applies: at 10 µM.
The target in experiment [10] is Ribosomal protein S6 kinase alpha-6 (Homo sapiens, UniProt Q9UK32). Briefly: Selectivity interaction (Kinase panel (Eurofins, enzymatic assay)) EUB0000311b RPS6KA6.
The target of experiment [11] is Serine/threonine-protein kinase WNK4 (Homo sapiens) (UniProt Q96J92). As to the kind of experiment: Selectivity interaction (KinomeScan (DiscoverX)) EUB0001079a WNK4. The note with it: at 1 µM.
The target of experiment [12] is T2, Muscarinic acetylcholine receptor M2 (Homo sapiens) (UniProt P08172).
T2 sequence (whole entry): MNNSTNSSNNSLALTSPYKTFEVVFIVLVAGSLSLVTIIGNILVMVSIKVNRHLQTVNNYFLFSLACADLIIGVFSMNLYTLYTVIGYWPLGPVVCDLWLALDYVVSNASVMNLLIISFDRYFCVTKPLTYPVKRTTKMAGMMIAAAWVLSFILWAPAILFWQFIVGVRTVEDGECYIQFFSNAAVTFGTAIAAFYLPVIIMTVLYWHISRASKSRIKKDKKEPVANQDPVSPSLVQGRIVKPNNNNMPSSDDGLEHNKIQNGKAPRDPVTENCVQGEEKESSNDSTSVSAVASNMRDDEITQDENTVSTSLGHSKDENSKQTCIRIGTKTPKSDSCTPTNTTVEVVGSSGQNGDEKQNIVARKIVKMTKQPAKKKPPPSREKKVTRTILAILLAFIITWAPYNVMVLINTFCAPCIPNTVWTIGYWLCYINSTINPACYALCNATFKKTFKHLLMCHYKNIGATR
Briefly: Selectivity interaction (Panel of kinases, GPCRs, ion channels and transporters (enzymatic assay)) EUB0000266bCl CHRM2.

The target of experiment [13] is Non-receptor tyrosine-protein kinase TYK2 (Homo sapiens, UniProt P29597). As to the kind of experiment: Selectivity interaction (Kinase panel (Invitrogen)) EUB0000639a TYK2. The following applies: at 200 nM.
Chain of Non-receptor tyrosine-protein kinase TYK2 (P29597 whole entry): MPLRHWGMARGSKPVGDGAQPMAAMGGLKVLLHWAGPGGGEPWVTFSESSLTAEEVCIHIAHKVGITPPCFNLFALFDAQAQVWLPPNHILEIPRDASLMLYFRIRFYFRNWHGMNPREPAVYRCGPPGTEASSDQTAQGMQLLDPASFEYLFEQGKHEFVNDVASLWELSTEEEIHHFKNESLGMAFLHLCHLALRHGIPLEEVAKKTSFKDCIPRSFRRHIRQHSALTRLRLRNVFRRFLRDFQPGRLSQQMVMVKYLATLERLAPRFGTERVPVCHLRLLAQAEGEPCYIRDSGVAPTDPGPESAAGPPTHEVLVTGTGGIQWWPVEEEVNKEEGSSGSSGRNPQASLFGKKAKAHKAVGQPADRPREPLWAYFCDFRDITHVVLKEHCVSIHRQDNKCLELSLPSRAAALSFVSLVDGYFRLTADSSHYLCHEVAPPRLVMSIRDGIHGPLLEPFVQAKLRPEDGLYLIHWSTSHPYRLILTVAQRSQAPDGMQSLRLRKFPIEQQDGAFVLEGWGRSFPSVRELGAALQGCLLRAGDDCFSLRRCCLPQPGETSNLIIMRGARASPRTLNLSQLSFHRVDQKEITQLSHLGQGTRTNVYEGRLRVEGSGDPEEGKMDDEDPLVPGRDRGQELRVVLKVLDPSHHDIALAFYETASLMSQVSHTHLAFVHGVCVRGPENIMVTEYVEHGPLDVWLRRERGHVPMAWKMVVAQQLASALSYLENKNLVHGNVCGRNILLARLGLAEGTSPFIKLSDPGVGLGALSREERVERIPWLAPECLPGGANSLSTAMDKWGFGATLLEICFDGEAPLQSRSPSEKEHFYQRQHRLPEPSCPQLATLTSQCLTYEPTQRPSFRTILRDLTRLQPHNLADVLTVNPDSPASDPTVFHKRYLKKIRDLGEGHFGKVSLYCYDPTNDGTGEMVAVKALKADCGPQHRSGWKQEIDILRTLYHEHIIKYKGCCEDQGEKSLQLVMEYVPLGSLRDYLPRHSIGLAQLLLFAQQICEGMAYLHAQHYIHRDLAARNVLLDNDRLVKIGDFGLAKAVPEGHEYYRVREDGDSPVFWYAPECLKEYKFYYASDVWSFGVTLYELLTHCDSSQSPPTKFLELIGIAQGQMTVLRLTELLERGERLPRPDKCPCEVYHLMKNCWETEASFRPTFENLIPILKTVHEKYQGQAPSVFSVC
The target in experiment [14] is Macrophage colony-stimulating factor 1 receptor (Homo sapiens) (UniProt P07333). As to the kind of experiment: Selectivity interaction (Millipore kinase profiler) EUB0000124b CSF1R. The following applies: at 10 µM.
Chain of Macrophage colony-stimulating factor 1 receptor (Homo sapiens) (P07333 whole entry): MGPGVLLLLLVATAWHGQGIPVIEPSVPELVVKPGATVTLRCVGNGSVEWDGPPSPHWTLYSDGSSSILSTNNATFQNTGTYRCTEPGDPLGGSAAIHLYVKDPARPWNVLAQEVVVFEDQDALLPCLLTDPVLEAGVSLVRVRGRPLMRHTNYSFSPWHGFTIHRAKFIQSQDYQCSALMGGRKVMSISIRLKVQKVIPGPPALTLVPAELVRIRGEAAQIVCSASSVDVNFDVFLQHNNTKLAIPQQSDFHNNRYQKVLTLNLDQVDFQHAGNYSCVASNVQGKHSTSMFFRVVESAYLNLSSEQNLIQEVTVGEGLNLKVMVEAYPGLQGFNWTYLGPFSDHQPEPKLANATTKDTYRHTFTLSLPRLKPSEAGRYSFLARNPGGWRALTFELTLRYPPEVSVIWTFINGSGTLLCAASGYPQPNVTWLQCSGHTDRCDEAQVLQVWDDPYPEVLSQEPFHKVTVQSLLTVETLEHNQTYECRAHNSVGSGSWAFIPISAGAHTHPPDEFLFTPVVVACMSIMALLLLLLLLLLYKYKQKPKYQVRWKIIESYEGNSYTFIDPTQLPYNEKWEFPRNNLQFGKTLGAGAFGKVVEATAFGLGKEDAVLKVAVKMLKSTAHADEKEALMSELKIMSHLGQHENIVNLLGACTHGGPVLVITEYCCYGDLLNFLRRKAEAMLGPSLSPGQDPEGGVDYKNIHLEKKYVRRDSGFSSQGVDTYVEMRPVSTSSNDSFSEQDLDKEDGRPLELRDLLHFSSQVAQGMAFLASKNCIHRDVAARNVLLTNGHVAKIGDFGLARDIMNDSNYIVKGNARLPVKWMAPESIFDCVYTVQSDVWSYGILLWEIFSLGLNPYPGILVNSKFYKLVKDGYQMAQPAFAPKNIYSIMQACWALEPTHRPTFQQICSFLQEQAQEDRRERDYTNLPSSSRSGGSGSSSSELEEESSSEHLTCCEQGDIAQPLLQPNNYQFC
The target in experiment [15] is Serine/threonine-protein kinase 10 (Homo sapiens) (UniProt O94804). Briefly: Selectivity interaction (KinomeScan (DiscoverX)) EUB0001049a STK10. The note with it: at 1 µM.
Chain of Serine/threonine-protein kinase 10 (Homo sapiens) (O94804 whole entry, looked up): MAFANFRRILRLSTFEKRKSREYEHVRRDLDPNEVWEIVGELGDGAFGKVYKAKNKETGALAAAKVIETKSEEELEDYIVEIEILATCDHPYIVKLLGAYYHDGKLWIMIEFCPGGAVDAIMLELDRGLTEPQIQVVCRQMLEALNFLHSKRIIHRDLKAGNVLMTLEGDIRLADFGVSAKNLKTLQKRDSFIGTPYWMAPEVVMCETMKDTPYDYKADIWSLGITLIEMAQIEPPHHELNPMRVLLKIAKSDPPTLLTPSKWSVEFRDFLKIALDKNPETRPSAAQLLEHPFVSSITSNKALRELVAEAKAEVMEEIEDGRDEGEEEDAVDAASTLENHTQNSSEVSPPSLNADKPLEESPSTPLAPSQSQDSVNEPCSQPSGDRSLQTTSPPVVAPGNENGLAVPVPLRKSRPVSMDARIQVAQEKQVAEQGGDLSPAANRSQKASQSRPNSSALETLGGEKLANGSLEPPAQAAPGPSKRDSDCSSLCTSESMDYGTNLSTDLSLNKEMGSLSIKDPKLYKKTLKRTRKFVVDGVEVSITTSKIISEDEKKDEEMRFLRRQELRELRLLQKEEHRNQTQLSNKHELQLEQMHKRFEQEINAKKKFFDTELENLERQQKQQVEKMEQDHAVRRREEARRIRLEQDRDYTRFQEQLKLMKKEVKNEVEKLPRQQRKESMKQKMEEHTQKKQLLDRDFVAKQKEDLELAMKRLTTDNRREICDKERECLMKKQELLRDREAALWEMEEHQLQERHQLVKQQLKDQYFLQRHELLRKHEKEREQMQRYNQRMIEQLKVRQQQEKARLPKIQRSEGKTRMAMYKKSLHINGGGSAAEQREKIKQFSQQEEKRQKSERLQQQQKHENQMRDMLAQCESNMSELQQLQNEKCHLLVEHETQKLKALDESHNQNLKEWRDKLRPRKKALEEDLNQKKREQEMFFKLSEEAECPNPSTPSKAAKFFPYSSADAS
In experiment [16] the target is Calcium/calmodulin-dependent protein kinase type II subunit alpha (Homo sapiens, UniProt Q9UQM7). Briefly: Selectivity interaction (Upstate Kinase Profiler service (Millipore)) EUB0000056c CAMK2A. The following applies: at 1 µM.

Chain of Mitogen-activated protein kinase kinase kinase 20 (Homo sapiens) (Q9NYL2 2-800 limits assumed): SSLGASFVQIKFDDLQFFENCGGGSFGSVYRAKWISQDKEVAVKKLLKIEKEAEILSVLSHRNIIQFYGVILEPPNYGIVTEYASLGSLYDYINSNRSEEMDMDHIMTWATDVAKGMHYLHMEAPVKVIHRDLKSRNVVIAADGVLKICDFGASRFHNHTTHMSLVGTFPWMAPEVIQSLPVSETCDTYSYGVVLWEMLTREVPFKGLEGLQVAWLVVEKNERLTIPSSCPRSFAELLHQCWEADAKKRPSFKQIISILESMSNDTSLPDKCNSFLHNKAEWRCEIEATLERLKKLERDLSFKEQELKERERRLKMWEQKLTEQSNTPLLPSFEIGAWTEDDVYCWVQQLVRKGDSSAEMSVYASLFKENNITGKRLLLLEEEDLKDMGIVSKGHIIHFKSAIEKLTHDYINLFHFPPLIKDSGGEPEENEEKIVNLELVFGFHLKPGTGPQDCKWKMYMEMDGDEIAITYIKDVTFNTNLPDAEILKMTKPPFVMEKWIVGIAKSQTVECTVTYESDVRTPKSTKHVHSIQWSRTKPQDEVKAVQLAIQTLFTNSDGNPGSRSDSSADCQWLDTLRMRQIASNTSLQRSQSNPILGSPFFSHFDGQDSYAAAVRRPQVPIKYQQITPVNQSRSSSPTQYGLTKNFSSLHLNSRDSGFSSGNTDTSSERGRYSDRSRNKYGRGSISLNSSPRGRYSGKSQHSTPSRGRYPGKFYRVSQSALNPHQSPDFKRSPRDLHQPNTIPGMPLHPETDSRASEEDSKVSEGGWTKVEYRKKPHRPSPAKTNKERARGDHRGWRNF

Turning to `Cn1cc(-n2cnc3c(NCc4nc5cc(Cl)c(Cl)cc5[nH]4)nc(N4CCOCC4)nc32)cn1`, the % of control in experiment [1] was -3.73%. Besides, the % of inhibition in [2] was -6.48%.
Regarding `CN(C)C/C=C/C(=O)Nc1ccc(C(=O)N2CCCC(Nc3ncc(Cl)c(-c4c[nH]c5ccccc45)n3)C2)cc1` (configuration not stated), in experiment [3], the % of control was determined as 100%.
As for `Cc1cc(C)cc([C@@H]2c3cc(C)ccc3NC(=O)CN2C(=O)c2ccc(Br)s2)c1`, the % of activity in [4] (at 1 µM) and in [4] (at 10 µM) was 102% in each case.
Turning to `CNC(=O)Nc1ccc(-c2nc(N3CC4CCC(C3)O4)c3cnn(C4CCC5(CC4)OCCO5)c3n2)cc1`, the % of inhibition was determined as 7% in experiment [5] and 6% in [6].
In the case of `Cc1cc([C@@H](C)Nc2ccccc2C(=O)O)c2nc(N3CCOCC3)cc(=O)n2c1` [AZD-6482], in experiment [7], the % of control was 100%.
Regarding `CNCCN1CCC(c2cc(CN(C)C(=O)c3cccc(Oc4ccccc4)c3)ccn2)CC1`, the % activity in [8] is more than 90%.
`COc1cc(N(C)c2ccnc3ccc(C(F)(F)F)cc23)cc(OC)c1OC` showed a % binding in experiment [9] of 91%.
In experiment [10], `CCc1ccccc1C(=O)Nc1n[nH]c2c(C)c(F)c(C3C(C#N)=C(C)N(C)C(C)=C3C#N)cc12` [BAY-3827] displayed an IC50 of 36 nM.
Regarding `Nc1cnc(N2CCc3cc(S(=O)(=O)Nc4c(F)cc(Cl)cc4F)cc(N4CCCC4=O)c32)nc1` [TP-020n], the % of control in [11] was determined as 100%.
In experiment [12], `CCn1c(-c2nc3cc(C(=O)N4CCCC(N)C4)ccc3n2C)cc2ccccc21` (configuration not stated) had a pXC50 of less than 4.8 M.
For `CC[C@@H]1[C@H](F)C(=O)N[C@@H]1COc1nccc2cc(C(N)=O)c(OC)cc12` [ZIMLOVISERTIB], the % of inhibition in [13] stood at 5.13%.
For `CC(=O)Nc1cccc(-n2c(=O)n(C3CC3)c(=O)c3c(Nc4ccc(I)cc4F)n(C)c(=O)c(C)c32)c1`, in [14], the % of control turned out to be 128%.
Regarding `COc1cc(Nc2nc(C)cc(-c3cnn4nc(OC)ccc34)n2)cc(C(F)(F)F)c1`, in [15], the % of control is 86%.
Turning to `Cc1ccc(-c2ccc3c(ccc4sc5c(c43)NC[C@@H](C)NC5=O)n2)cn1`, the % of inhibition in [16] was determined as 87%.

The term IC50 denotes the concentration that inhibits the measured activity by half.
